Source: paper PMC5439065, “Effect of Naringenin, Quercetin, and Sesamin on Xenobiotica-Metabolizing CYP1A and CYP3A in Mice Offspring after Maternal Exposure to Persistent Organic Pollutants” (BioMed Research International, 2017)

Experiments:
[1] = test system: CYP1A; assay: In vitro inhibition of EROD (7-ethoxyresorufin O-dealkylase) activity in hepatic microsomes; settings: for Inhibition of EROD activity: all exposure groups, concentrations 5 to 100000 nM; for Ki at 5 min: CD-1, mouse, liver microsomes, pH 7.4, probe 7-ethoxyresorufin (0.005 to 4.0 µM)
Procedure: (§1) Liver samples were taken immediately after necropsy, frozen in ethanol and dry ice, and stored at −80°C until use. The microsomal fractions were prepared using a calcium aggregation method. Microsomal protein concentration was determined with a commercially available kit (Bio-Rad laboratories Inc., Hercules, CA, USA) according to the manufacturer's instructions.
(§2) In mice, O-dealkylation of 7-ethoxyresorufin is catalyzed by CYP1A1 and CYP1A2 [15], and O-dealkylation of 7-benzyloxyresorufin by CYP3A11 enzyme. The activities of CYP1A and CYP3A were determined as a rate of ethoxy- (EROD) and benzyloxy- (BROD) resorufin O-dealkylation, respectively. Incubation mixtures contained microsomal protein (0.2 mg), phosphate buffer (pH 7.4, 50 mM), and appropriate substrate (1 μM of 7-ethoxyresorufin or 2 μM of 7-benzyloxyresorufin). Reactions were initiated by the addition of 0.5 mM NADPH. The reaction mixture, in a final volume of 500 μL, was incubated in a water bath at 37°C for 5 min (EROD) or 7 min (BROD), and afterwards the reactions were terminated with ice-cold methanol (500 μL), followed by centrifugation at 7,500 ×g. Resorufin concentrations were measured as previously described. EROD and BROD activities were expressed as pmol of resorufin per milligram protein and minute.
(§3) EROD and BROD activities were initially evaluated in the presence of quercetin, naringenin, and sesamin at nine concentrations from 5 to 100000 nM. To examine the inhibition mode, the activities were determined in the presence of 2 or 3 inhibitor concentrations over the substrate concentration ranges 0.005 to 4.0 μM for EROD and 0.05 to 8 μM for BROD, respectively. The stock solutions of quercetin, naringenin, and sesamin were prepared in DMSO and added to incubations to yield final concentrations of 5, 10, 50, 100, 500, 1000, 2000, […], and 100000 nM. The final DMSO content in the incubations was 0.5%. The control incubations contained the same concentration of DMSO.
(§4) Comparison of enzymatic activities in the absence of the inhibitors between studied groups was performed on logarithmically transformed values using a mixed model with fixed effect of treatment (SAS version 9.3, SAS Institute Inc., Cary, NC, USA). The IC50 (concentration causing 50% reduction of control activity) and Ki values for inhibitors were calculated by nonlinear regression analysis using GraphPad prism version 4.0 for Windows (GraphPad, San Diego, CA, USA). Comparisons of IC50 and Ki values between the studied groups were performed on logarithmically transformed values using one-way analysis of variance, followed by the Tukey multiple-comparisons test. Differences were regarded as significant when P < 0.05.

[2] = target: T1, CYP3A (Mus musculus, UniProt Q64459); assay: in vitro; settings: 2 or 3 inhibitor concentrations, substrate 0.05 to 8 μM
T1 sequence (Q64459 1-504): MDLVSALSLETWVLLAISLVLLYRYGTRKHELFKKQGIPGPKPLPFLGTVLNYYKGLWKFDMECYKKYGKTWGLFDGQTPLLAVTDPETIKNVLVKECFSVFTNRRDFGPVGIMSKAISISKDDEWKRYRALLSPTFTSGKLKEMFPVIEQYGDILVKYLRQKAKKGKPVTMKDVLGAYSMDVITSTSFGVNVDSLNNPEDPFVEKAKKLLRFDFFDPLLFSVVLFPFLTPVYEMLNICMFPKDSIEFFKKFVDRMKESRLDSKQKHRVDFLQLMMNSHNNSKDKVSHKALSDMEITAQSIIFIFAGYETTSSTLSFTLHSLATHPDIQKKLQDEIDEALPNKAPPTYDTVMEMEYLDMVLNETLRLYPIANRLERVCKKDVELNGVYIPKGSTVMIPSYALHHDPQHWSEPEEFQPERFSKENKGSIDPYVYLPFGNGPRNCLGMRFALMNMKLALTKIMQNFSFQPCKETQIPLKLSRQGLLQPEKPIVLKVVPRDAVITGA
Procedure: as §1, §2, §3, §4

[3] = target: T2, CYP3A (CYP3A11) (Mus musculus, UniProt Q64459); assay: in vitro; settings: CD-1, mouse, microsomes; for IC50 at 7 min: pH 7.4, IC50, CYP3A (BROD), 2 μM 7-benzyloxyresorufin
T2 sequence (Q64459 1-504): T1 sequence (Q64459 1-504)
Procedure: as §1, §2, §3, §4

[4] = test system: CYP1A (CYP1A1 and CYP1A2); assay: In vitro inhibition of EROD (7-ethoxyresorufin O-dealkylase) activity in hepatic microsomes; settings: CD-1, mouse, liver microsomes, pH 7.4, probe 7-ethoxyresorufin (1 µM), IC50, CYP1A (EROD), geometric mean (confidence interval), 1 μM 7-ethoxyresorufin
Procedure: as §1, §2, §3, §4

[5] = microsomes from high POPs-exposed mice, geometric mean (confidence interval)
[6] = microsomes from low POPs-exposed mice, geometric mean (confidence interval)
[7] = microsomes from unexposed mice, geometric mean (confidence interval)
[8] = pH 7.4, Ki values, BROD activity, range over the unexposed, low- and high-exposed groups
[9] = pH 7.4, Ki, CYP3A (BROD), microsomes from high POPs-exposed mice, geometric mean (confidence interval)
[10] = pH 7.4, Ki, CYP3A (BROD), microsomes from low POPs-exposed mice, geometric mean (confidence interval)
[11] = pH 7.4, Ki, CYP3A (BROD), microsomes from unexposed mice, geometric mean (confidence interval)

| Structure (SMILES) | Inhibition of EROD activity [1] | Inhibition of EROD activity ([1]; listed as naringenin) | Mode of inhibition of BROD activity [2] | IC50 at 7 min [3, 5] [µM] | IC50 at 7 min [3, 6] [µM] | IC50 at 7 min [3, 7] [µM] | Ki at 7 min [3, 8] [µM] | Ki at 7 min [3, 9] [µM] | Ki at 7 min [3, 10] [µM] | Ki at 7 min [3, 11] [µM] | Mode of inhibition of EROD activity ([1]; 2 or 3 inhibitor concentrations, substrate 0.005 to 4.0 μM) | Ki at 5 min ([1]; Ki values, EROD activity, range over the unexposed, low- and high-exposed groups) [µM] | Ki at 5 min ([1]; Ki, CYP1A (EROD), microsomes from high POPs-exposed mice, geometric mean (confidence interval)) [µM] | Ki at 5 min ([1]; Ki, CYP1A (EROD), microsomes from low POPs-exposed mice, geometric mean (confidence interval)) [µM] | Ki at 5 min ([1]; Ki, CYP1A (EROD), microsomes from unexposed mice, geometric mean (confidence interval)) [µM] | IC50 at 5 min ([4]; microsomes from high POPs-exposed mice) [µM] | IC50 at 5 min ([4]; microsomes from low POPs-exposed mice) [µM] | IC50 at 5 min ([4]; microsomes from unexposed mice) [µM] |
| --- | --- | --- | --- | --- | --- | --- | --- | --- | --- | --- | --- | --- | --- | --- | --- | --- | --- | --- |
| O=C1C[C@@H](c2ccc(O)cc2)Oc2cc(O)cc(O)c21 [Naringenin, naringenin] | No inhibition | Neither naringenin nor sesamin inhibited | noncompetitively inhibited | 43.1 | 49.1 | 40.3 | 39.3 to 45.8 | 39.3 | 45.8 | 42.1 | – | – | – | – | – | – | – | – |
| O=c1c(O)c(-c2ccc(O)c(O)c2)oc2cc(O)cc(O)c12 [Quercetin, quercetin] | strongly inhibited | – | noncompetitively inhibited | 35.7 | 27.1 | 30.2 | 64.9 to 75.3 | 75.3 | 64.9 | 67.1 | competitively inhibited | 1.7 to 2.6 | 2.6 | 2.6 | 1.7 | 5.8 | 5.1 | 5.4 |
